We go through 26 compounds from ChEMBL document CHEMBL5241065, “If small molecules immunotherapy comes, can the prime be far behind?” (Eur J Med Chem, 2021).

In test [1] the target is T1, Tyrosine-protein phosphatase non-receptor type 11 (Homo sapiens, UniProt Q06124).
T1 sequence (Q06124 whole entry): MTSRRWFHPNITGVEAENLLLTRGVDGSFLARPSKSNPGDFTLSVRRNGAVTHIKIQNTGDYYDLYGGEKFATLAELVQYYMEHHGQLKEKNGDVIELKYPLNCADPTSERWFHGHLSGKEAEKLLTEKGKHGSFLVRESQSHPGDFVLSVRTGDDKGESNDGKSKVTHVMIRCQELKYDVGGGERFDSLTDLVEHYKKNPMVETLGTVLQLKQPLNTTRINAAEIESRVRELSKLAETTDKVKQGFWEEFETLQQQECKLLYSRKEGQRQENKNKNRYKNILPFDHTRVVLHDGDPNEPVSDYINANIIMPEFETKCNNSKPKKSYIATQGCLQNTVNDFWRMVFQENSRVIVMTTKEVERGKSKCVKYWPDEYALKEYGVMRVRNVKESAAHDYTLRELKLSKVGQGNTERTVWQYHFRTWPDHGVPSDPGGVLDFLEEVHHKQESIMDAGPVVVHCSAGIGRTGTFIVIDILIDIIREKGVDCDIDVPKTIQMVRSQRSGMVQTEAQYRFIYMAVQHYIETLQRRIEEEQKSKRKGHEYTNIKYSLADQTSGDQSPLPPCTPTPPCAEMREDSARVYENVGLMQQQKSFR

Test [2] has as its target T1, Tyrosine-protein phosphatase non-receptor type 11. Nature of the test: Inhibition of SHP (unknown origin).
In test [3] the target is T2, Stimulator of interferon genes protein (Homo sapiens, UniProt Q86WV6). Nature of the test: Agonist activity at STING in human THP1-Dual cells assessed as increase in IFN-beta secretion incubated for 24 hrs. In kind it is cell-based, THP-1.
T2 sequence (Q86WV6 whole entry): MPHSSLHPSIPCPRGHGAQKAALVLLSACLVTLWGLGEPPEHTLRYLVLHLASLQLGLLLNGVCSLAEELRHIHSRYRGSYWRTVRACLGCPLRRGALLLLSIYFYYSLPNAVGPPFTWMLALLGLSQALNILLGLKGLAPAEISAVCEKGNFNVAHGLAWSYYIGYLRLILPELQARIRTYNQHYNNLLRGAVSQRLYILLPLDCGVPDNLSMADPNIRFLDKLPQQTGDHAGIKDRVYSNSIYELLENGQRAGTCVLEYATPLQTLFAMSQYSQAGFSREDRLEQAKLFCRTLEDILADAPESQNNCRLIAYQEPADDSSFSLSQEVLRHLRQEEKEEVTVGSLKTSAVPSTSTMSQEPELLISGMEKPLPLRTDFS
The nature of test [4]: Agonist activity at TNFalpha (unknown origin). Also on record: species or system Homo sapiens.
Test [5] can be described thus: Agonist activity at IFNalpha (unknown origin). Details: species or system Homo sapiens.
Test [6] deals with T2, Stimulator of interferon genes protein. The experiment in a line: Binding affinity to human STING assessed as dissociation constant by surface plasmon resonance.
The target in test [7] is T3, Tyrosine-protein phosphatase non-receptor type 1 (Homo sapiens, UniProt P18031).
T3 sequence (P18031 whole entry): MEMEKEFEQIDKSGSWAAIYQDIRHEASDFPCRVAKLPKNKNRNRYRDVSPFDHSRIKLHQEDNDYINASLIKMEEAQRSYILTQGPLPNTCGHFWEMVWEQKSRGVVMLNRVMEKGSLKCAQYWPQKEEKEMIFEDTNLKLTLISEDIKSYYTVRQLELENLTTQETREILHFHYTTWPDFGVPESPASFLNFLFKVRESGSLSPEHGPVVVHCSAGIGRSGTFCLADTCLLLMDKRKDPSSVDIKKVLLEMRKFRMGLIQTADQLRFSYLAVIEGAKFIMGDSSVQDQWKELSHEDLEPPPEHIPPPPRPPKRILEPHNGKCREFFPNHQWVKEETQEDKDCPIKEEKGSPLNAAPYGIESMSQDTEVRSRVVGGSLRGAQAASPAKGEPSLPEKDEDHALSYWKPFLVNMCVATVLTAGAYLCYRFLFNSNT

Test [8] concerns the target Tyrosine-protein phosphatase non-receptor type 11 (Homo sapiens, UniProt Q06124, E76K). The experiment in a line: Inhibition of SHP2 (unknown origin) E76K mutant.
For test [9], the target named is T4, Arginase-1 (Homo sapiens, UniProt P05089).
T4 sequence (P05089 whole entry): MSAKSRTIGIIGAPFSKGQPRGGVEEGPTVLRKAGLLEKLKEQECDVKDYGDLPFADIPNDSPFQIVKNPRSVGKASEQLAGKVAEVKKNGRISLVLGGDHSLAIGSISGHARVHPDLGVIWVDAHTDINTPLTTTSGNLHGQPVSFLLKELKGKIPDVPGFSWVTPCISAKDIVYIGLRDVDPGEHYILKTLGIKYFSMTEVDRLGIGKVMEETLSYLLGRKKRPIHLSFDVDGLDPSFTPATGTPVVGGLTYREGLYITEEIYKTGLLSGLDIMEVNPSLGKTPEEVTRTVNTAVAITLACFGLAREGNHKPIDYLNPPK

For test [10], the target named is T4, Arginase-1. The experiment in a line: Inhibition of recombinant human ARG1 expressed in Escherichia coli using L-arginine hydrochloride as substrate incubated for 1 hr by colorimetric assay.
Test [11] addresses T5, Arginase-2, mitochondrial (Homo sapiens, UniProt P78540).
T5 sequence (P78540 whole entry): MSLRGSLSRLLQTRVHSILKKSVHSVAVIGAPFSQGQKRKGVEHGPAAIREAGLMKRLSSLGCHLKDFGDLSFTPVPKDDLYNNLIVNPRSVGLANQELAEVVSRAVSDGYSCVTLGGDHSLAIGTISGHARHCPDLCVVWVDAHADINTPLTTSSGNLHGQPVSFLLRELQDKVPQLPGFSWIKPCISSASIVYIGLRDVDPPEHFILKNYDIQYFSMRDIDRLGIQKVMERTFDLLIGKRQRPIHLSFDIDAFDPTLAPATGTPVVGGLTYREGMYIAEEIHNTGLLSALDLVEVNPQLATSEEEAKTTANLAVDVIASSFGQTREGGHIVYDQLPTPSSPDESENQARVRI

Test [12] deals with Tyrosine-protein phosphatase non-receptor type 6 (Homo sapiens, UniProt P29350).
Chain of Tyrosine-protein phosphatase non-receptor type 6 (P29350 whole entry): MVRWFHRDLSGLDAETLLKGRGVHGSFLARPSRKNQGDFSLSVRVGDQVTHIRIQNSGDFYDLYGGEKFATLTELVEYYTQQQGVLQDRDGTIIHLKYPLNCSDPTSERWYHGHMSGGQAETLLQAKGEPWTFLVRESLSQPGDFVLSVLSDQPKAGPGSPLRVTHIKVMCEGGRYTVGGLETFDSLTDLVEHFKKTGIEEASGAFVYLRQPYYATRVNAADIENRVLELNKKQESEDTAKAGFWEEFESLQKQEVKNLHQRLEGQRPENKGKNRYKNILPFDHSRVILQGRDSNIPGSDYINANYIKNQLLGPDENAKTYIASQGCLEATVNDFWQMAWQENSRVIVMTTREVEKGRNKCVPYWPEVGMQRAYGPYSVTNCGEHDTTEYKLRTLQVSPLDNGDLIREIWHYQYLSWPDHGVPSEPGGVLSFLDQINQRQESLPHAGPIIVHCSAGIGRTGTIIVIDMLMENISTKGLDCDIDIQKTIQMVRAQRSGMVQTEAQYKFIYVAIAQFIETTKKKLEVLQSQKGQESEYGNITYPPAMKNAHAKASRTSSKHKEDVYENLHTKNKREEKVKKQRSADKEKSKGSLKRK
In test [13] the target is T1, Tyrosine-protein phosphatase non-receptor type 11. This is another data set of the same source.
The target of test [14] is T5, Arginase-2, mitochondrial. The experiment in a line: Inhibition of recombinant human ARG2 expressed in Escherichia coli using L-arginine hydrochloride as substrate incubated for 1 hr by colorimetric assay.
Test [15] addresses T1, Tyrosine-protein phosphatase non-receptor type 11. Nature of the test: Inhibition of SHP2 (unknown origin) at 100 mg/mL.
The target in test [16] is Tyrosine-protein phosphatase non-receptor type 11 (Homo sapiens, UniProt Q06124, Q257L/T253M). The experiment in a line: Inhibition of SHP2 T253M/Q257L mutant (unknown origin).
Chain of Tyrosine-protein phosphatase non-receptor type 11 (Homo sapiens, UniProt Q06124, Q257L/T253M) (Q06124 2-593 T253M/Q257L limits assumed): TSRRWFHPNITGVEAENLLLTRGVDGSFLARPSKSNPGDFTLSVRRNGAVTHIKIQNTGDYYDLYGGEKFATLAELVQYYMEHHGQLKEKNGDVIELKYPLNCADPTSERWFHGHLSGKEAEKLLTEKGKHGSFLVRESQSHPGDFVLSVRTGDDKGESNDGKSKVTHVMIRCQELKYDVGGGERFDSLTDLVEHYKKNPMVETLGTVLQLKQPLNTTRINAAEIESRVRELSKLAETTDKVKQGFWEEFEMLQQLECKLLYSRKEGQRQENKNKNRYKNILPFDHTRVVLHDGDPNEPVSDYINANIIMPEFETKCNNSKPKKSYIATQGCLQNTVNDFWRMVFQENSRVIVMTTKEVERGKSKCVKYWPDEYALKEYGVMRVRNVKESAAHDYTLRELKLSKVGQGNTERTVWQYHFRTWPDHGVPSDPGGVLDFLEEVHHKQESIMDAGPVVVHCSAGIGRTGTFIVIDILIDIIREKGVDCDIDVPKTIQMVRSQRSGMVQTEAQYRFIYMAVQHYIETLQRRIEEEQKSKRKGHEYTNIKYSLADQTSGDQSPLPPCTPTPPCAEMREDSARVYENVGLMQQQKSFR
Test [17] has as its target Tyrosine-protein phosphatase non-receptor type 11 (Homo sapiens, UniProt Q06124). The experiment in a line: Inhibition of SHP2 1-525 mutant (unknown origin).
Test [18] addresses Tyrosine-protein kinase BTK (Homo sapiens, UniProt Q06187).
Test [19] concerns the target T1, Tyrosine-protein phosphatase non-receptor type 11. This is another data set of the same source.
A further test has as its system L929. Nature of the test: cells. To be noted: Mus musculus.
The nature of test [20]: Binding affinity to A2aR (unknown origin). Also on record: species or system Homo sapiens.
Test [21] deals with Programmed cell death 1 ligand 1 (Homo sapiens, UniProt Q9NZQ7).
Chain of Programmed cell death 1 ligand 1 (Q9NZQ7 whole entry): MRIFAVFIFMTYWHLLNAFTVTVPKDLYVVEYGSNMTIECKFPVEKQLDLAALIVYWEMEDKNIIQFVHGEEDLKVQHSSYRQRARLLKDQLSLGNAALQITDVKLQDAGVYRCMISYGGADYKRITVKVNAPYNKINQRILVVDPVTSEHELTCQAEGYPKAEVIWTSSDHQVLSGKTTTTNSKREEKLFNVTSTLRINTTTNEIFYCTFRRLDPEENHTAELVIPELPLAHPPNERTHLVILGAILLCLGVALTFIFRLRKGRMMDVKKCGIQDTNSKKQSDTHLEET
The target of test [22] is T6, Arginase-1 (Mus musculus, UniProt Q61176).
T6 sequence (Q61176 whole entry): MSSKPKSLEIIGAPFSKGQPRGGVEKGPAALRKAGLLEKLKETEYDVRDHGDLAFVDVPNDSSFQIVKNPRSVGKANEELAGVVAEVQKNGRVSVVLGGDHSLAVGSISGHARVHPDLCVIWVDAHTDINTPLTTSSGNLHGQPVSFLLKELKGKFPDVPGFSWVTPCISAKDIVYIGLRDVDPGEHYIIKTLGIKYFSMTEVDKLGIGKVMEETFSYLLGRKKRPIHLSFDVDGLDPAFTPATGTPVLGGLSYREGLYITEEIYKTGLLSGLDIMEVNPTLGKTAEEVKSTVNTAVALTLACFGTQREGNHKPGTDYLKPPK
The experiment in a line: Inhibition of mouse ARG1.

Chain of Tyrosine-protein phosphatase non-receptor type 11 (Homo sapiens, UniProt Q06124, E76K) (Q06124 2-593 E76K limits assumed): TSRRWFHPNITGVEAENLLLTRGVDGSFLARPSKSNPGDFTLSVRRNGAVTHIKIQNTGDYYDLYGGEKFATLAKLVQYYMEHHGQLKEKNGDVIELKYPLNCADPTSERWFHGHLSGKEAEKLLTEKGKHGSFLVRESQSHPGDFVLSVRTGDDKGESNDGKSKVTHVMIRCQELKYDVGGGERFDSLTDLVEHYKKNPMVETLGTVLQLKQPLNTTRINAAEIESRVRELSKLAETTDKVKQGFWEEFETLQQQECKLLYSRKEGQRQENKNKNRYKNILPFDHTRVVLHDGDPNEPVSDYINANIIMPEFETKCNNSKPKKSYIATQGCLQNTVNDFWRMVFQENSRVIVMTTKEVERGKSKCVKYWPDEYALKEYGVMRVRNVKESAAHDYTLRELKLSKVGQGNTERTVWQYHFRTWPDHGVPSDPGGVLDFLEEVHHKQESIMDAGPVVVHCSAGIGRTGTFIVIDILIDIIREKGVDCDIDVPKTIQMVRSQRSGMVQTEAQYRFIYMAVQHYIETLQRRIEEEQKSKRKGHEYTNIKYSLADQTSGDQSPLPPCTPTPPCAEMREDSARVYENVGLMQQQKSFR
Chain of Tyrosine-protein kinase BTK (Q06187 whole entry): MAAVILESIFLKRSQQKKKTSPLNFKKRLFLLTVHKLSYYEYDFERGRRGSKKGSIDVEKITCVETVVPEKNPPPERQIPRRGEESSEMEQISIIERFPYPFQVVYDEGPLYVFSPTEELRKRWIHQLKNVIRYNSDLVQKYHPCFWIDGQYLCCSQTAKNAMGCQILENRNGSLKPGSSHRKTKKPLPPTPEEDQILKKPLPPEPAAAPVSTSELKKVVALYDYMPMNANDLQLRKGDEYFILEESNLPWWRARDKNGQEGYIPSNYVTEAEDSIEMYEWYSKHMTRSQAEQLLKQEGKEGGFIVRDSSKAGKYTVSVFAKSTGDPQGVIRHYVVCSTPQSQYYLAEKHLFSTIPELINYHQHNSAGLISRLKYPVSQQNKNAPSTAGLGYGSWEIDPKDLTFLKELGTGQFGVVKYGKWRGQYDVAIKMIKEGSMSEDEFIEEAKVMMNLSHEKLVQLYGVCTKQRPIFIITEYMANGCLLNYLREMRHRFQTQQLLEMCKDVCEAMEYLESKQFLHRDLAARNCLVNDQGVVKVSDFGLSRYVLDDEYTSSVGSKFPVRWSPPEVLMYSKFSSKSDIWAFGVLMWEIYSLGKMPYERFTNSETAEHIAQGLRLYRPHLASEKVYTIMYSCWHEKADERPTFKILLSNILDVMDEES

For `C[C@@H]1OCC2(CCN(c3nc(N)c(Sc4cccnc4C(F)(F)F)c(=O)n3O)CC2)[C@@H]1N`, the IC50 in [1] and in [2] was 23 nM throughout. As for `CCn1nc(C)cc1C(=O)/C=C1\Nc2cc(C(N)=O)cc(CCCN3CCOCC3)c2N1C/C=C/CN1/C(=C/C(=O)c2cc(C)nn2CC)Nc2cc(C(N)=O)cc(OC)c21`, the EC50 (usually the concentration at which the effect is half-maximal) in test [3] came out at 130 nM. In the case of `CCC[C@H](C)Oc1nc(N)c2[nH]c(=O)n(CCCCCN3CCCCC3)c2n1` [GSK-2245035], the pEC50 (commonly the negative decadic logarithm of the EC50, by convention in mol/L) in test [4] is given as 6.5; in test [5] it was 9.3.

With `COc1c(O)cc2oc3cc(O)c(CC=C(C)C)c(O)c3c(=O)c2c1CC=C(C)C` [MANGOSTIN], the Kd (as a rule, the constant that tells how readily two partners part at equilibrium) in [6] stood at 137000 nM. As for `O=C1Nc2ccc(S(=O)(=O)NCc3ccc(F)cc3)cc2/C1=N/Nc1cccc(C(=O)O)c1`, in test [7], the IC50 (commonly the concentration that inhibits the measured activity by half) was found to be 1690 nM. In the case of `CCOc1cc(O)c(C(=O)/C=C/c2ccc(Cl)cc2Cl)cc1CN1CCC=C(C2C(=O)Nc3ccccc32)C1` (centres undefined), the figures for the IC50 in test [8] and in test [1] were 7670 nM and 9.8 nM, respectively. As to `N=C(NO)NCCC[C@H](N)C(=O)O`, the IC50 on Arginase-1 [9] was 3600 nM; at Arginase-1 [10] it was 150 nM; in test [11], 1600 nM. On to `Cn1cc(-c2cn(CC(=O)Nc3nc4ccccc4s3)nn2)c2cc(C(=O)O)c(O)cc21`, for which the results for the IC50 in [7], in test [12] and in [13] were 2100 nM, 15700 nM and 5500 nM, respectively.

In test [2], `Cc1nc(N2CCC(C)(N)CC2)c(CO)nc1-c1cccc(Cl)c1Cl` gave an IC50 of 71 nM. Consider `N[C@@](CCCCB(O)O)(C(=O)O)C1CCN(Cc2ccc(Cl)c(Cl)c2)CC1`, for which the figures for the IC50 (in test [14]; on Arginase-1 [10]) were 290 nM and 200 nM, respectively. On to `N=C(NO)NCC[C@H](N)C(=O)O` [NOR-NOHA], for which the IC50 in test [11] amounted to 51 nM. Take `N[C@@H](CSCCB(O)O)C(=O)O`: the IC50 at Arginase-1 [9] was found to be 270 nM; in test [11], 30 nM. The compound `COC(=O)c1cccc(N/N=C2\C(=O)Nc3ccc(S(=O)(=O)NCc4ccc(F)cc4)cc32)c1` had an IC50 in test [15] of more than 100000 nM.

As for `COc1cccc(-c2nnc3n(Cc4ccccc4Cl)c(=O)c4ccccc4n23)c1O`, the half-maximal inhibitory concentration (IC50) in test [16] and in test [17] was 60000 nM throughout.

As for `N[C@@H](CCCCB(O)O)C(=O)O`, the IC50 on Arginase-1 [9] was found to be 5 nM; in test [11], 8.5 nM.

On to `CCOC(=O)c1ccc(N2NC(c3ccc([N+](=O)[O-])cc3)/C(=N/Nc3ccc(S(=O)(=O)O)cc3)C2=O)cc1` (centres undefined), for which the IC50 stood at 19000 nM in [7], 1800 nM in test [12] and 630 nM in [13]. As to `N[C@](CCCCB(O)O)(CCN1CCCCC1)C(=O)O`, the IC50 on Arginase-1 [10] is 509 nM. Take `Cc1c(-c2c(F)cc(C(N)=O)c3[nH]c4c(c23)CC[C@H](C(C)(C)O)C4)cccc1N1C(=O)c2cccc(F)c2C(C)C1=O` (some centres undefined): half-maximal inhibition in test [18] (IC50) was put at 0.5 nM. On to `O=C1Nc2cc(S(=O)(=O)O)ccc2C1/N=N/c1ccccc1[N+](=O)[O-]` (centres undefined), for which the IC50 in test [13] and in test [19] was 47000 nM each time.

With `NC(CCCCB(O)O)(C(=O)O)C1CCN(Cc2ccc(Cl)cc2Cl)CC1` (centres undefined), the results for the IC50 (in test [14]; on Arginase-1 [10]) were 296 nM and 86 nM, respectively.

In turn, `NC1=NC2C(N=CN2[C@@H]2O[C@@H]3COP(=O)(O)O[C@H]4[C@@H](O)[C@H](N5C=NC6C(=O)NC(N)=NC65)O[C@@H]4COP(=O)(O)O[C@H]3[C@H]2O)C(=O)N1` (some centres undefined) returned an EC50 in the test with L929 of more than 500 nM.

As to `Nc1nc(-n2cccn2)nc(-n2cccn2)c1Br` [PBF-509], the Ki (in general, a measure of affinity in units of concentration, obtained from inhibition or displacement) in test [20] was found to be 8.2 nM. In the case of `O=S(=O)(O)c1ccc2cc(/N=N/c3cc(S(=O)(=O)O)c4cccnc4c3O)ccc2c1`, the IC50 is 14300 nM in test [7] and 335 nM in [12]. Compound `N#Cc1cncc(COc2cc(OC3CCc4c(-c5ccccc5)cccc43)c(Cl)cc2CN[C@@H](CO)C(=O)O)c1` (some centres undefined) gave an IC50 in test [21] of less than 100 nM.

For `O=C1/C(=N\Nc2ccc(S(=O)(=O)O)cc2)C(c2ccc([N+](=O)[O-])cc2)NN1c1ccccc1` (centres undefined), the IC50 in test [7] was determined as 14500 nM; in test [12], 30000 nM; in test [13], 30000 nM.

`OC[C@H]1O[C@H](Oc2cc(/C=C/c3cc(O)cc(O)c3)ccc2O)[C@H](O)[C@@H](O)[C@@H]1O` yielded an IC50 on Arginase-1 [22] of 11200 nM.
